Test results as given in patent US7226623B2, “In vitro and in vivo anti-inflammatory effects of a sesquiterpene lactone extract from chicory (Cichorium intybus L.)” (Rutgers, The State University of New Jersey, priority 2005, dated 2007).

Experiments:
[1] = tested on: nitric oxide production by LPS-induced macrophages; test: Griess assay for NO production; assay type: cell-based, murine; details: aspirin 10 μM, LPS 1 μg/mL, 24 hours
Protocol: Down-regulation of various pro-inflammatory genes, including iNOS, IL1β and TNF-α, can reduce nitric oxide production by macrophages. In order to confirm that changes in pro-inflammatory gene expression were affecting cellular function, the Griess assay was performed to indirectly measure nitric oxide production by LPS-induced macrophages by measuring nitrite. For the assay, RAW cells were plated in a 96-well plate at a minimum density of 5×10^3 cells/well and grown for 24 hours. […] After 24 hours, conditioned media (50 μl) was removed and immediately mixed with 100 μl of Griess reagent ([…], 1% naphthalene-ethylenediamine dihydrochloride in 5% H3PO4). After incubation for 15 minutes at room temperature, the samples were read at 550 nm using a microplate spectrophotometer (Molecular Devices, Sunnyvale, Calif.). Data for each treatment were normalized based on results from an MTT cell proliferation assay.

BALB/c mice = test: Collagen induced arthritis (type II collagen mAbs with LPS challenge); assay type: in vivo; details: indomethacin 3 mg/kg oral
Protocol: Groups of 5 BALB/c mice weighing 25±2 g were used for this study. A 4 mg/mouse combination of 4 monoclonal antibodies (mAbs) against type II collagen (D8, F10, DI-2G, and A2; IBL Co., Japan) was administered to mice intravenously on day 0 of the study to induce an inflammatory reaction mimicking rheumatoid arthritis. On day 3 of the study, mice were given LPS ([…]) intravenously to potentiate the inflammatory effect. One hour after LPS administration, mice were dosed orally with chicory extract (200 mg/kg), indomethacin (3 mg/kg; Sigma, St. Louis, Mo.), or vehicle control (1% carboxymethylcellulose, CMC; Sigma, St. Louis, Mo.). Mice were dosed with chicory extract or vehicle for two more consecutive days. Volumes of both hind paws were measured using a plethysmometer on days 0, 5, 7, 10, 14, and 17. The increase in paw edema at each time point was determined by comparison with paw volume measured on day 0. Inhibition of edema was calculated by comparison with vehicle control at the same time point. This study was a GLP study (#1038342) performed by MDS Pharma Services (Taiwan).

Wistar rats = test: Carrageenan-induced rat paw edema; assay type: in vivo; details: indomethacin (15 mg/kg)
Protocol: Groups of 5 adult male and female Wistar rats with body weights from 136 g to 170 g were used for this study. Rats were housed five animals per cage in a room kept at 24-26° C. and fed ad libitium. Before the experiment began, rat paw sizes were recorded by measuring paw volume three times on each animal using a plethysmometer (Ugo Basile, Comerio VA, Italy). The values were averaged to give a baseline paw size value. To start the experiment, animals were given a subcutaneous injection of 1% carrageenan (100 μl; Sigma, St. Louis, Mo.) in the area of the back paw to induce an acute inflammatory reaction (paw edema). One hour after carrageenan injection, rats were orally gavaged with chicory extract or vehicle control (4% apricot kernel balm). Paw size was measured at 3 hours, 5 hours, and 24 hours after injection. The increase in paw edema at each time point was determined by comparison with paw volume measured pre-injection. Inhibition of edema was calculated by comparison with vehicle control at the same time point.

Row | Compound | Griess assay % LPS control [1] | Mouse arthritis % inhibition of edema (BALB/c mice; day 5) | Mouse arthritis % inhibition of edema (BALB/c mice; day 7) | Mouse arthritis % inhibition of edema (BALB/c mice; day 10) | Mouse arthritis % inhibition of edema (BALB/c mice; day 14) | Mouse arthritis % inhibition of edema (BALB/c mice; day 17) | Rat Paw Edema, inhibition of edema vs vehicle control (Wistar rats; 3 h after carrageenan) | Rat Paw Edema, inhibition of edema vs vehicle control (Wistar rats; 5 h after carrageenan) | Rat Paw Edema, inhibition of edema vs vehicle control (Wistar rats; 24 h after carrageenan)
1 | CC(=O)Oc1ccccc1C(=O)O [aspirin] | 69% |  |  |  |  |  |  |  | 
2 | COc1ccc2c(c1)c(CC(=O)O)c(C)n2C(=O)c1ccc(Cl)cc1 [indomethacin] |  | 83% | 81% | 82% | 77% | 85% | 43% | 36% | 51%
